Data reported in ChEMBL document CHEMBL1201862, “PubChem BioAssay data set” (2004).
Active and inactive are the calls of the source.

How the values were obtained:
[1] = system: HEK293; assay: membrane integrity loss in HEK cells – cell-based, fluorescence, cytotoxicity control for IDE activator project, dose response (AID 588440); assay type: functional; details: Homo sapiens;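 also: cytotoxicity by LDH release measuring loss of membrane integrity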
[2] = biological target: T1, Insulin-degrading enzyme (Homo sapiens, UniProt P14735); assay: recombinant IDE activation, cell-free – biochemical, fluorescence polarization, counter-screen for IDE activator project, dose response (AID 588681)
T1 sequence (P14735 whole entry): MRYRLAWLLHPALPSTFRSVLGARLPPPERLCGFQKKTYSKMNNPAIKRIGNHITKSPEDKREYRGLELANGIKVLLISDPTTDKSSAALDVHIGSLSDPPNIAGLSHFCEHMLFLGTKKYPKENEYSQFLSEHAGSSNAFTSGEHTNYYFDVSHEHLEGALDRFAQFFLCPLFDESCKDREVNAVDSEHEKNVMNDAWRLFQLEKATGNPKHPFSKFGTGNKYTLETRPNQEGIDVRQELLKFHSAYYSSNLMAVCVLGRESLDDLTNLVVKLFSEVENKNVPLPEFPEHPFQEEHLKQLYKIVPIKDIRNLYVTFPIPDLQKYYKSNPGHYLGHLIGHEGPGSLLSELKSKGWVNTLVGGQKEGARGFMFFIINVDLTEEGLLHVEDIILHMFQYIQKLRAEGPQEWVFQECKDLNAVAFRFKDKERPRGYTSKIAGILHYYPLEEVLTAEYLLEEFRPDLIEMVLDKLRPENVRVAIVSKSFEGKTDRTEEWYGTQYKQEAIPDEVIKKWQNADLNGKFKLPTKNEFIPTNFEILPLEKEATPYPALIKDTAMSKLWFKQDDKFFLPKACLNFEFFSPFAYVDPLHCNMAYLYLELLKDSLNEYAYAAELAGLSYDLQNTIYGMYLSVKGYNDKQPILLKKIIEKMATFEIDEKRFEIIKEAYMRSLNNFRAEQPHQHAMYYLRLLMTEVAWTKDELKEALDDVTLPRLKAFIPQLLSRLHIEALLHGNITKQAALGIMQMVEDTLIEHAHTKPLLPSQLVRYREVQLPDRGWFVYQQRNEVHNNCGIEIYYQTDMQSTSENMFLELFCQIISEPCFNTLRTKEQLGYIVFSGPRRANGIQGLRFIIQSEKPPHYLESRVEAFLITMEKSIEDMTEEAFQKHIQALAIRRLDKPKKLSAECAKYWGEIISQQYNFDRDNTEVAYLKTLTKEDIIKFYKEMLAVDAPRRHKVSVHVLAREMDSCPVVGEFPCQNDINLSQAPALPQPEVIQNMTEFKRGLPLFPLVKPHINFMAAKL

[3] = biological target: Beta-lactamase (Salmonella choleraesuis (strain SC-B67), UniProt Q5J463)
Beta-lactamase (Salmonella choleraesuis (strain SC-B67), UniProt Q5J463), sequence (Q5J463 whole entry): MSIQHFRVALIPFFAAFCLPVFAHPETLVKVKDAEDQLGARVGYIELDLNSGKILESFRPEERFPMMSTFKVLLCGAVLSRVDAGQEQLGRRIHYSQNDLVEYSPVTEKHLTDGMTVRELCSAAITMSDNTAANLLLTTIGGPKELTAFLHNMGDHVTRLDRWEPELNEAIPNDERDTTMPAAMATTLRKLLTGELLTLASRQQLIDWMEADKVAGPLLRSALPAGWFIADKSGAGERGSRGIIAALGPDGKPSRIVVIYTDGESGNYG

[4] = biological target: T1, Insulin-degrading enzyme; assay: cellular IDE activation of Abeta substrate cleavage – fluorescence polarization, HEK cells, dose response (AID 588439); assay type: functional, cell-based
[5] = biological target: Beta-lactamase (Pseudomonas aeruginosa, UniProt Q79MP6);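 also: biochemical dose-response test of metallo-beta-lactamase enzyme inhibition, read out by epi-absorbance; purified recombinant IMP-1 metallo-beta-lactamase with nitrocefin as substrate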
Beta-lactamase (Pseudomonas aeruginosa, UniProt Q79MP6), sequence (Q79MP6 whole entry): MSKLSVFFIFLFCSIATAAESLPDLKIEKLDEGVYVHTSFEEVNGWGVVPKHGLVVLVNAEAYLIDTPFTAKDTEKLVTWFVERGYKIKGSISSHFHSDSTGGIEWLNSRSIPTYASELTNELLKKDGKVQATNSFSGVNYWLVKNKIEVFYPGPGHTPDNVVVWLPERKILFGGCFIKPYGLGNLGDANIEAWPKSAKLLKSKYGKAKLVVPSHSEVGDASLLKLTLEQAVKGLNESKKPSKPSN

[6] = system: HEK293; assay: optical interference in Abeta FP readout, dose response, artefact control for IDE activator project, biochemical, fluorescence polarization (AID 588442); assay type: functional, cell-based; details: Homo sapiens
[7] = system: CHO; assay: CHO cell viability loss, potency – luminescence, cytotoxicity control for TLR9-MyD88 binding inhibitor project, dose response (AID 588339); assay type: functional, cell-based, hamster; details: Cricetulus griseus;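 also: CHO cells stably coexpressing TLR9 and MyD88 fusions from primary screen; compound exposure lasted 48 hours before viability readout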
[8] = cAMP pathway inhibition in counterscreen cell line – TR-FRET cAMP detection, counter-screen for MC4R biased antagonist project, dose response (AID 602305); assay type: functional, cell-based;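 also: U2OS cells stimulated with forskolin near its EC80 as the cAMP inducer; potency is for inhibition of forskolin-stimulated cAMP signaling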
[9] = biological target: Melanocortin receptor 4 (Homo sapiens, UniProt P32245); assay: inhibitors of MC4R cAMP signaling – cell-based, TR-FRET, biased antagonists, dose response (AID 602298); assay type: functional;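 also: antagonist potency against agonist-stimulated cAMP production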
Melanocortin receptor 4, sequence (P32245 whole entry): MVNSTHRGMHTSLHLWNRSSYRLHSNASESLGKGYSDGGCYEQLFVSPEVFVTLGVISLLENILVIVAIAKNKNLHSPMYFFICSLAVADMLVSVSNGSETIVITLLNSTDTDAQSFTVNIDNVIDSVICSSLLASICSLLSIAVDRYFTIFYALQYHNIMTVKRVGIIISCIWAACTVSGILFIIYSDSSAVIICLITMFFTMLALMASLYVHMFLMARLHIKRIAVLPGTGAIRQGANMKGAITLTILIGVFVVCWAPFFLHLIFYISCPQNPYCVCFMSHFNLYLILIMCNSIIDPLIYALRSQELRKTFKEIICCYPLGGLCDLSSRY

[10] = biological target: 26S proteasome non-ATPase regulatory subunit 14 (Homo sapiens, UniProt O00487); assay: inhibition of proteasome subunit RPN11 – biochemical, fluorescence polarization, uHTS hits, confirmation (AID 602368); assay type: functional
26S proteasome non-ATPase regulatory subunit 14, sequence (O00487 whole entry): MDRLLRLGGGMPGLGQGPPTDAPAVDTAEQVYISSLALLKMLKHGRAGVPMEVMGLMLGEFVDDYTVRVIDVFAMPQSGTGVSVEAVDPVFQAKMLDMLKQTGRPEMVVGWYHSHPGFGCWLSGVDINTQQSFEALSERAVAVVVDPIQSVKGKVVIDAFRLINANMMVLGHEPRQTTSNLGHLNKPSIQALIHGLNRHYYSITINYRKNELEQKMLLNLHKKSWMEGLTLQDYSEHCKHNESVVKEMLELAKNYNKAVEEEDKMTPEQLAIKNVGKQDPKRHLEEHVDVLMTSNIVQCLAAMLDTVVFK

[11] = biological target: 72 kDa type IV collagenase (Homo sapiens, UniProt P08253); assay: Dose Response validation of uHTS RPN11 inhibitor hits using a MMP-2 Fluorescence assay.; assay type: functional
72 kDa type IV collagenase, sequence (P08253 whole entry): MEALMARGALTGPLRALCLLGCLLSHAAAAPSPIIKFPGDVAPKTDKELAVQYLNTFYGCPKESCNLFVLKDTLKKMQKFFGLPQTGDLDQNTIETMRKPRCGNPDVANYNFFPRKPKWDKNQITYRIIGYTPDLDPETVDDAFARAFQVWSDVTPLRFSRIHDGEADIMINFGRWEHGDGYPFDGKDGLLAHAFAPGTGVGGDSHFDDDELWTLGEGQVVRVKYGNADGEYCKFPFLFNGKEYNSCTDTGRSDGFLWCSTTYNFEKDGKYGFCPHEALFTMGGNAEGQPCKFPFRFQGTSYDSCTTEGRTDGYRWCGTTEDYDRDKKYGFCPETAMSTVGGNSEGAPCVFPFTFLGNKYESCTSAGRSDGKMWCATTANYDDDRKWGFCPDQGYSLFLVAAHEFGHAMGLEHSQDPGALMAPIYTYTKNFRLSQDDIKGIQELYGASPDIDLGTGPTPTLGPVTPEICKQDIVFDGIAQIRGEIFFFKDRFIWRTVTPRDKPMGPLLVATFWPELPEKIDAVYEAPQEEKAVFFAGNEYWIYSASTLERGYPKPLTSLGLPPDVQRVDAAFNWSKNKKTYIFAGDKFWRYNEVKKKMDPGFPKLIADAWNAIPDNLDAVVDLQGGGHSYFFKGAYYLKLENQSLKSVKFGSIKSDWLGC

[12] = biological target: Prothrombin (Bos taurus, UniProt P00735); assay: thrombin protease inhibitors – biochemical, fluorescence polarization, uHTS hits, dose response (AID 602369); assay type: functional
[13] = viability of PTEN-deleted HCT116 cells – cell-based, HCT116 PTEN knockout, dose response (AID 1047); assay type: functional;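 also: HCT116 colon tumor cells with PTEN knocked out; cells exposed to compound for 60 hours before readout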
[14] = Luminescence Cell-Based Dose Retest to Confirm Inhibitors of Cancer Stem Cells. [Related pubchem assays (depositor defined):AID2717, AID2721]; assay type: functional; details: Homo sapiens
[15] = non-specific 3'UTR reporter inhibition in Clone20-Shn3RL – cell-based, Renilla luciferase, cherry-picked, counter-screen for Shn3 inhibitor project, dose response (AID 624133); assay type: functional
[16] = loss of viability in HepG2 cells – cell-based, CellTiter-Glo, cherry-picked, cytotoxicity control for Shn3 inhibitor project, dose response (AID 624134); assay type: functional
[17] = system: INS1; assay: INS-1E survival protection against cytokine death – cell-based, luminescence, retest, dose response (AID 449756); assay type: functional; details: Rattus norvegicus;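 also: cell death triggered by IL-1 beta plus TNF-alpha plus IFN-gamma mixture; protective hits raise ATP signal compared with cytokine alone wells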
[18] = reduction of Shn3 3'UTR-driven luciferase in osteoblasts – cell-based, Clone20 osteoblasts, firefly luciferase, cherry-picked, dose response (AID 624132); assay type: functional;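 also: firefly luciferase luminescence from reporter carrying the Shn3 3'UTR in osteoblasts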
[19] = viability of HCT116 lacking mutant beta-catenin – cell-based, human colon tumor, dose response (AID 1045); assay type: functional;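 also: HCT116 colon tumor cells with beta catenin knocked out; cells exposed to compound for 60 hours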
[20] = biological target: T2, Cytochrome P450 1A2 (Homo sapiens, UniProt P05177);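 also: PubChem cytochrome P450 panel assay, CYP1A2 panel member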
T2 sequence (P05177 whole entry): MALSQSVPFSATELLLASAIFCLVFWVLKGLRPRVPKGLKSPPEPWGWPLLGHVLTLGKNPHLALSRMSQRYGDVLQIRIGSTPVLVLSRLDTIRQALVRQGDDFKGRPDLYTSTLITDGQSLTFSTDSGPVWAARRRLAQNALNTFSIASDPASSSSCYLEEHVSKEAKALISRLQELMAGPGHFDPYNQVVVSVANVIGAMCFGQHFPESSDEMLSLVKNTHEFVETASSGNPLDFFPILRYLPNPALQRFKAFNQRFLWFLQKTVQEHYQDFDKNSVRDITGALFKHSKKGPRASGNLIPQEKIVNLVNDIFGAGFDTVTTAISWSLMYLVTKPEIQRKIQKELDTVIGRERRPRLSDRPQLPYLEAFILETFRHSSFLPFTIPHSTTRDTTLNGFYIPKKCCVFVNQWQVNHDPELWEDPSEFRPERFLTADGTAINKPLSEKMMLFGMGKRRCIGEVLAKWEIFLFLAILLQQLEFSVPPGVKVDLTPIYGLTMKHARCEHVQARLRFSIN

Row | SMILES | IC50 [1] | EC50 [2] | EC50 [4] | EC50 [6] | IC50 [10] | IC50 [11] | IC50 [12] | other results
1 | CCCCNc1ccc2c3c(cccc13)C(=O)N(CCCC)C2=O | > 89.1 µM (inactive) | > 54.7 µM (inactive) | > 54.7 µM (inactive) | 12.1 µM (inactive) | – | – | – | IC50 [3]: 3.89 µM (active); IC50 [5]: 37.2 µM (inactive); IC50 [7]: > 49.7 µM (inactive)
2 | CC(C)(C)C(=O)COC(=O)CNC(=O)c1ccc(Oc2ccccc2)cc1 | – | – | – | – | – | – | – | IC50 [8]: > 64.6 µM (inactive); IC50 [9]: > 64.6 µM (inactive)
3 | CSc1nsc(/C=C/Nc2ccc(C(=O)O)cc2)c1C#N | – | – | – | – | 24.8 µM (active) | 45 µM (active) | 27.6 µM (active) | –
4 | COc1ccc(Cn2c(SCc3ccccc3C)nc3cc(OC)c(OC)cc3c2=N)cc1 | 18.5 µM (inactive) | > 54.7 µM (inactive) | 9.39 µM (active) | > 54.7 µM (inactive) | – | – | – | EC50 [13]: 4.85 µM (active); AC50 [14]: 2.71 µM (active); AC50 [15]: 16 µM (active); AC50 [16]: 12.8 µM (active); AC50 [17]: 4.3 µM (active); AC50 [18]: 5.46 µM (active); EC50 [19]: 3.81 µM (active); AC50 [20]: 15.8 µM (inconclusive)
5 | Cc1cc(C(F)(F)F)nc(SCCN2CCOCC2)c1C#N | – | – | – | – | 19.7 µM (active) | > 100 µM (inactive) | 25.7 µM (active) | –
